Active and inactive are the calls of the source. No cut-off for these calls is given here.
Legend:
[1] = system: HUVEC; experiment: Induction of morphological changes in human HUVEC cells assessed as loss of cell interactions at 50 nM incubated for 48 hrs by phase contrast microscopic analysis; format: toxicity, cell-based; settings: 0.05 µM
[2] = system: MHCC97H; experiment: Induction of apoptosis in human MHCC97H cells assessed as upregulation of Bad expression measured after 24 to 48 hrs by Western blot analysis; format: functional, cell-based; settings: dose 5-50 nM, time 24-48 hrs, DDE = dose-dependent effect
[3] = system: A2780; experiment: Antiproliferative activity against human A2780 cells assessed as reduction in cell viability incubated for 48 hrs by MTT assay; format: functional, cell-based; settings: A2780, 48 h
[4] = target: T1, Tubulin (Homo sapiens) (UniProt P68371+Q9H4B7+P0DPH7+P68366+Q13509+Q71U36+P04350+Q3ZCM7+P07437+P68363+Q9BQE3+Q6PEY2+Q13885+Q9BVA1+Q9BUF5); experiment: Disruption of microtubule network in human MHCC97H cells assessed as dotted morphology at 5 to 50 nM incubated for 24 hrs by Hoechst 33342 staining based confocal microscopy; format: cell-based; settings: dose 5-50 nM
[5] = target: T1, Tubulin (Homo sapiens); experiment: Inhibition of colchicine binding to tubulin (unknown origin) at 0.312 uM by competitive binding assay relative to control; format: protein-complex assay
[6] = target: T1, Tubulin (Homo sapiens); experiment: Disruption of microtubule network in human MHCC97H cells assessed as shrunken morphology at 5 to 50 nM incubated for 24 hrs by Hoechst 33342 staining based confocal microscopy; format: cell-based; settings: dose 5-50 nM
[7] = Cytotoxicity against human HUVEC cells assessed as reduction in cell viability incubated for 48 hrs by MTT assay; format: toxicity, cell-based
[8] = system: HCT-8/VCR; experiment: Downregulation of TrxR in vincristine resistant human HCT-8/VCR cells at 10 to 50 nM incubated for 48 hrs by Western blot analysis; format: functional, cell-based; settings: dose 10-50 nM
[9] = Toxicity in BALB/c mouse xenografted with human MHCC97H cells assessed as change in body weight at 30 mg/kg, ip administered every other day for 30 days; format: organism-based; settings: in vivo, 720 h, time 30 day
[10] = system: MHCC97H; experiment: Antitumor activity against human MHCC97H cells xenografted in BALB/c mouse assessed as tumor weight at 30 mg/kg, ip administered every other day for 30 days; format: functional; settings: time 30 day
[11] = target: T1, Tubulin (Homo sapiens); experiment: Inhibition of colchicine binding to tubulin (unknown origin) at 10 uM by competitive binding assay relative to control; format: protein-complex assay
[12] = system: MHCC97H; experiment: Induction of apoptosis in human MHCC97H cells assessed as decrease in MMP level incubated for 24 hrs by JC-1 staining based fluorescence microscopy; format: functional, cell-based; settings: dose 5-50 nM, DDE = dose-dependent effect
[13] = target: T1, Tubulin (Homo sapiens); experiment: Inhibition of colchicine binding to tubulin (unknown origin) at 2.50 uM by competitive binding assay relative to control; format: protein-complex assay; settings: dose 2.5 µM
[14] = Inhibition of TrxR (unknown origin) using DTNB as substrate incubated for 5 mins in presence of NADPH followed by substrate addition by microplate reader analysis; set-up: species or system Homo sapiens
[15] = system: MHCC97H; experiment: Induction of morphological changes in human MHCC97H cells assessed as cell rounding at 5 to 50 nM incubated for 48 hrs by phase contrast microscopic analysis; format: functional, cell-based; settings: dose 5-50 nM
[16] = Resistance index, ratio of IC50 for antiproliferative activity against adriamycin resistant human MCF7/ADR cells to IC50 for antiproliferative activity against human MCF7 cells; format: functional
[17] = species: Homo sapiens; experiment: Irreversible inhibition of TrxR (unknown origin) using DTNB as substrate at 10 uM incubated for 2 hrs in presence of NADPH followed by substrate addition ultrafiltration based microplate reader analysis relative to control
[18] = system: MHCC97H; experiment: Induction of apoptosis in human MHCC97H cells assessed as downregulation of Bcl-2 expression at 5 to 50 nM measured after 24 to 48 hrs by Western blot analysis; format: functional, cell-based; settings: dose 5-50 nM, time 24-48 hrs
[19] = species: Homo sapiens; experiment: Irreversible inhibition of TrxR (unknown origin) using DTNB as substrate at 2.5 uM incubated for 2 hrs in presence of NADPH followed by substrate addition ultrafiltration based microplate reader analysis relative to control
[20] = target: T1, Tubulin (Homo sapiens); experiment: Induction of microtubule disruption in human MHCC97H cells assessed as occurence of cell shrinkage at 10 nM measured after 8 hrs by immunofluorescence based confocal microscopic analysis
[21] = system: MHCC97H; experiment: Induction of morphological changes in human MHCC97H cells assessed as membrane blebbing at 5 to 50 nM incubated for 48 hrs by phase contrast microscopic analysis; format: functional, cell-based; settings: dose 5-50 nM
[22] = Cytotoxicity against human MCF-10A cells assessed as reduction in cell viability incubated for 48 hrs by MTT assay; format: toxicity, cell-based
[23] = system: MHCC97H; experiment: Induction of apoptosis in human MHCC97H cells assessed as decrease in MMP level incubated for 24 hrs by JC-1 staining based flow cytometry; format: functional, cell-based; settings: dose 5-50 nM, DDE = dose-dependent effect
[24] = Resistance index, ratio of IC50 for antiproliferative activity against vincristine resistant human HCT-8/VCR cells to IC50 for antiproliferative activity against human HCT-8 cells; format: functional
[25] = system: MHCC97H; experiment: Induction of apoptosis in human MHCC97H cells assessed as chromatin condensation at 5 to 50 nM incubated for 24 hrs by Hoechst 33342 staining based fluorescence microscopy; format: functional, cell-based; settings: dose 5-50 nM
[26] = system: MHCC97H; experiment: Induction of apoptosis in human MHCC97H cells assessed as increase in total apoptotic cells at 5 to 50 nM by Annexin V-FITC/PI staining based flow cytometry method; format: functional, cell-based; settings: dose 5-50 nM, time 24-48 hrs, TDE = time-dependent effect
[27] = system: A2780/PTX; experiment: Downregulation of TrxR in paclitaxel resistant human A2780/PTX cells at 10 to 50 nM incubated for 48 hrs by Western blot analysis; format: functional, cell-based; settings: dose 10-50 nM
[28] = system: MHCC97H; experiment: Induction of morphological changes in human MHCC97H cells assessed as cell shrinkage at 5 to 50 nM incubated for 48 hrs by phase contrast microscopic analysis; format: functional, cell-based; settings: dose 5-50 nM
[29] = Selectivity ratio, ratio of IC50 for cytotoxicity against human HLF cells to IC50 for antiproliferative activity against human MHCC97H cells; format: toxicity, cell-based; settings: HLF cells versus MHCC97H cells, read-out: Ratio IC50
[30] = Selectivity ratio, ratio of IC50 for cytotoxicity against human HUVEC cells to IC50 for antiproliferative activity against human MHCC97H cells; format: toxicity, cell-based; settings: HUVEC cells versus MHCC97H cells, read-out: Ratio IC50
[31] = system: MHCC97H; experiment: Induction of apoptosis in human MHCC97H cells assessed as nucleus shrinkage at 5 to 50 nM incubated for 24 hrs by Hoechst 33342 staining based fluorescence microscopy; format: functional, cell-based; settings: dose 5-50 nM
[32] = system: MHCC97H; experiment: Induction of apoptosis in human MHCC97H cells assessed as downregulation of Bcl-xl expression at 5 to 50 nM measured after 24 to 48 hrs by Western blot analysis; format: functional, cell-based; settings: dose 5-50 nM, time 24-48 hrs
[33] = Inhibition of TrxR in human MHCC97H cells using DTNB as substrate preincubated for 4 hrs in presence of NADPH followed by substrate addition by microplate reader analysis; format: cell-based
[34] = system: NCI/ADR-RES; experiment: Downregulation of TrxR in adriamycin resistant human MCF7/ADR cells at 10 to 50 nM incubated for 48 hrs by Western blot analysis; format: functional, cell-based; settings: dose 10-50 nM
[35] = Antiproliferative activity against vincristine resistant human HCT-8/VCR cells assessed as reduction in cell viability incubated for 48 hrs by MTT assay; format: functional, cell-based

IC50 [3]: 18 nM | Activity [4]: Active | inhibition [5]: 30.7% | Activity [6]: Active | inhibition [11]: 94.4% | inhibition [13]: 46.7% | IC50 [14]: 3730 nM | inhibition [17]: 91.4% | inhibition [19]: 58.4% | Activity [20]: Active | IC50 [33]: 10200 nM
Structure (SMILES): COc1ccc2c(/C=C(\C)C(=O)c3cc(OC)c(OC)c([Se]C)c3)c[nH]c2c1
Activity [1]: Toxic | Activity [2]: Dde | IC50 at 48 h [7]: 56 nM | Activity [8]: Active | Activity [9]: Non-Toxic | Activity [10]: 0.453 g | Activity [12]: Dde | Activity [15]: Active | Ratio IC50 [16]: 0.51 | Activity [18]: Active | Activity [21]: Active | IC50 at 48 h [22]: 723 nM | Activity [23]: Dde | Ratio IC50 [24]: 1.56 | Activity [25]: Active | Activity [26]: Tde | Activity [27]: Active | Activity [28]: Active | selectivity ratio [29]: 394 | selectivity ratio [30]: 9.33 | Activity [31]: Active | Activity [32]: Active | Activity [34]: Active | IC50 [35]: 45 nM

— ChEMBL document CHEMBL5143510, “Structure modification and biological evaluation of indole-chalcone derivatives as anti-tumor agents through dual targeting tubulin and TrxR” (Eur J Med Chem, 2022)
